{"source": "patent US20100105705A1", "about": "“PURINYL DERIVATIVES AND THEIR USE AS POTASSIUM CHANNEL MODULATORS” (NeuroSearch A/S, priority 2007, published 2010)", "data": [{"system": "not given", "experiment": "not given", "units": {"melting point": "°C"}, "values": [{"smiles": "Cn1cnc2c(Nc3ccc(Cl)cc3)nc(-c3ccccn3)nc21", "note": "[Compound 13.1, (4-Chloro-phenyl)-(9-methyl-2-pyridin-2-yl-9H-purin-6-yl)-amine]", "melting point": "185.4 to 190.5"}]}, {"target": "T1, hSK3 channels (Homo sapiens, UniProt Q9UGI6)", "T1 construct": "expressed in transfected cells; host or cells: HEK293", "experiment": "Whole-cell patch-clamp recording of ionic current through SK channels, subtype 3, in HEK293 cells expressing hSK3", "format": "cell-based", "method": "The ionic current through small-conductance Ca^2+-activated K^+ channels (SK channels, subtype 3) is recorded using the whole-cell configuration of the patch-clamp technique in a classic patch-clamp set-up using HEK293 tissue culture cells expressing hSK3 channels as described in e.g. WO 2006/100212.\nThe SC100 value determined is defined as the Stimulating Concentration required for increasing the baseline current by 100%. The below SC100 values are an indication of the SK3 activating properties of the compounds of the invention.", "units": {"SC100 (Stimulating Concentration required for increasing the baseline current by 100%)": "µM"}, "values": [{"smiles": "Cn1cnc2c(Nc3ccc(Cl)cc3)nc(-n3ccc(C(F)(F)F)n3)nc21", "note": "[Compound 6.1, (4-Chloro-phenyl)-[9-methyl-2-(3-trifluoromethyl-pyrazol-1-yl)-9H-purin-6-yl]-amine]", "SC100 (Stimulating Concentration required for increasing the baseline current by 100%)": 0.3}, {"smiles": "Cn1cnc2c(Nc3ccc(Cl)cc3)nc(-n3cccn3)nc21", "note": "[Compound 6.2, (4-Chloro-phenyl)-(9-methyl-2-pyrazol-1-yl-9H-purin-6-yl)-amine]", "SC100 (Stimulating Concentration required for increasing the baseline current by 100%)": 0.18}, {"smiles": "Cn1cnc2c(NC3CCCCC3)nc(-n3cccn3)nc21", "note": "[Compound 6.3, Cyclohexyl-(9-methyl-2-pyrazol-1-yl-9H-purin-6-yl)-amine]", "SC100 (Stimulating Concentration required for increasing the baseline current by 100%)": 0.7}, {"smiles": "Cc1ccn(-c2nc(Nc3ccc(F)cc3)c3ncn(C)c3n2)n1", "note": "[Compound 6.6, (4-Fluoro-phenyl)-[9-methyl-2-(3-methyl-pyrazol-1-yl)-9H-purin-6-yl]-amine]", "SC100 (Stimulating Concentration required for increasing the baseline current by 100%)": 0.02}, {"smiles": "Cn1cnc2c(Nc3ccc(Cl)cc3)nc(-n3ccc(N)n3)nc21", "note": "[Compound 7.1, [2-(3-Amino-pyrazol-1-yl)-9-methyl-9H-purin-6-yl]-(4-chloro-phenyl)-amine]", "SC100 (Stimulating Concentration required for increasing the baseline current by 100%)": 0.6}, {"smiles": "Cc1ccn(-c2nc(Nc3ccc(Cl)cc3)c3ncn(C)c3n2)n1", "note": "[Compound 9.1, (4-Chloro-phenyl)-[9-methyl-2-(3-methyl-pyrazol-1-yl)-9H-purin-6-yl]-amine]", "SC100 (Stimulating Concentration required for increasing the baseline current by 100%)": 0.02}, {"smiles": "Cc1ccn(-c2nc(NCCc3ccccc3)c3ncn(C)c3n2)n1", "note": "[Compound 9.3, [9-Methyl-2-(3-methyl-pyrazol-1-yl)-9H-purin-6-yl]-phenethyl-amine]", "SC100 (Stimulating Concentration required for increasing the baseline current by 100%)": 0.6}, {"smiles": "Cc1c2c(nn1-c1nc(Nc3ccc(F)cc3)c3ncn(C)c3n1)CCC2", "note": "[Compound 9.5, (4-Fluoro-phenyl)-[9-methyl-2-(3-methyl-5,6-dihydro-4H-cyclopentapyrazol-2-yl)-9H-purin-6-yl]-amine]", "SC100 (Stimulating Concentration required for increasing the baseline current by 100%)": 0.15}]}]}
